{
  "source": "patent US20050197350A1",
  "about": "“Novel quinoline, tetrahydroquinazoline, and pyrimidine derivatives and methods of treatment related to the use thereof” (TAISHO PHARMACEUTICAL CO., LTD., priority 2003, published 2005)",
  "data": [
    {"system": "MCH receptors", "assay": "MCH receptor activity class (method not given)", "conditions": "class by percent of control at 10^-7 M or IC50", "values": [
      {"smiles": "CN(C)c1nc(N[C@H]2CC[C@@H](NC(=O)NCc3ccc(Cl)c(Cl)c3)CC2)nc2c1CCCC2", "note": "[compound 1867]", "class": "3 (Class 3 The value of percent of control at 10^−7 M was more than 60% or the value of IC50 was more than 200 nM.)"},
      {"smiles": "COc1cc(NC(=O)N[C@H]2CC[C@@H](Nc3nc4c(c(N(C)C)n3)CCCC4)CC2)cc(OC)c1", "note": "[compound 1868]", "class": "3 (Class 3 The value of percent of control at 10^−7 M was more than 60% or the value of IC50 was more than 200 nM.)"},
      {"smiles": "Cc1cc(C)cc(NC(=O)N[C@H]2CC[C@@H](Nc3nc4c(c(N(C)C)n3)CCCC4)CC2)c1", "note": "[compound 1869]", "class": "3 (Class 3 The value of percent of control at 10^−7 M was more than 60% or the value of IC50 was more than 200 nM.)"},
      {"smiles": "COC(=O)c1cccc(NC(=O)N[C@H]2CC[C@@H](Nc3nc4c(c(N(C)C)n3)CCCC4)CC2)c1", "note": "[compound 1870]", "class": "3 (Class 3 The value of percent of control at 10^−7 M was more than 60% or the value of IC50 was more than 200 nM.)"},
      {"smiles": "CCc1cccc(NC(=O)N[C@H]2CC[C@@H](Nc3nc4c(c(N(C)C)n3)CCCC4)CC2)c1", "note": "[compound 1871]", "class": "3 (Class 3 The value of percent of control at 10^−7 M was more than 60% or the value of IC50 was more than 200 nM.)"},
      {"smiles": "CN(C)c1nc(N[C@H]2CC[C@@H](NC(=O)Nc3cc(F)cc(C(F)(F)F)c3)CC2)nc2c1CCCC2", "note": "[compound 1872]", "class": "3 (Class 3 The value of percent of control at 10^−7 M was more than 60% or the value of IC50 was more than 200 nM.)"},
      {"smiles": "CN(C)c1nc(N[C@H]2CC[C@@H](NC(=O)NCc3cccc(F)c3)CC2)nc2c1CCCC2", "note": "[compound 1873]", "class": "3 (Class 3 The value of percent of control at 10^−7 M was more than 60% or the value of IC50 was more than 200 nM.)"},
      {"smiles": "CN(C)c1nc(N[C@H]2CC[C@@H](NC(=O)Nc3cccc([N+](=O)[O-])c3)CC2)nc2c1CCCC2", "note": "[compound 1874]", "class": "3 (Class 3 The value of percent of control at 10^−7 M was more than 60% or the value of IC50 was more than 200 nM.)"},
      {"smiles": "CN(C)c1nc(N[C@H]2CC[C@@H](NC(=O)Nc3cccc(Oc4ccccc4)c3)CC2)nc2c1CCCC2", "note": "[compound 1875]", "class": "3 (Class 3 The value of percent of control at 10^−7 M was more than 60% or the value of IC50 was more than 200 nM.)"},
      {"smiles": "CN(C)c1nc(N[C@H]2CC[C@@H](NC(=O)Nc3ccc(OC(F)F)cc3)CC2)nc2c1CCCC2", "note": "[compound 1876]", "class": "3 (Class 3 The value of percent of control at 10^−7 M was more than 60% or the value of IC50 was more than 200 nM.)"},
      {"smiles": "CCCCOC(=O)c1ccc(NC(=O)N[C@H]2CC[C@@H](Nc3nc4c(c(N(C)C)n3)CCCC4)CC2)cc1", "note": "[compound 1877]", "class": "3 (Class 3 The value of percent of control at 10^−7 M was more than 60% or the value of IC50 was more than 200 nM.)"},
      {"smiles": "CN(C)c1nc(N[C@H]2CC[C@@H](NC(=O)Nc3ccc(C(F)(F)F)cc3)CC2)nc2c1CCCC2", "note": "[compound 1878]", "class": "3 (Class 3 The value of percent of control at 10^−7 M was more than 60% or the value of IC50 was more than 200 nM.)"},
      {"smiles": "CN(C)c1nc(N[C@H]2CC[C@@H](NC(=O)Nc3ccc(SC(F)(F)F)cc3)CC2)nc2c1CCCC2", "note": "[compound 1879]", "class": "3 (Class 3 The value of percent of control at 10^−7 M was more than 60% or the value of IC50 was more than 200 nM.)"},
      {"smiles": "Cc1cc(NC(=O)N[C@H]2CC[C@@H](Nc3nc4c(c(N(C)C)n3)CCCC4)CC2)c([N+](=O)[O-])cc1C", "note": "[compound 1880]", "class": "3 (Class 3 The value of percent of control at 10^−7 M was more than 60% or the value of IC50 was more than 200 nM.)"},
      {"smiles": "CN(C)c1nc(N[C@H]2CC[C@@H](NC(=O)Nc3ccc(OCc4ccccc4)cc3)CC2)nc2c1CCCC2", "note": "[compound 1881]", "class": "3 (Class 3 The value of percent of control at 10^−7 M was more than 60% or the value of IC50 was more than 200 nM.)"},
      {"smiles": "CN(C)c1nc(N[C@H]2CC[C@@H](NC(=O)Nc3ccc(Cc4ccccc4)cc3)CC2)nc2c1CCCC2", "note": "[compound 1882]", "class": "3 (Class 3 The value of percent of control at 10^−7 M was more than 60% or the value of IC50 was more than 200 nM.)"},
      {"smiles": "CN(C)c1nc(N[C@H]2CC[C@@H](NC(=O)Nc3ccc(Br)cc3Cl)CC2)nc2c1CCCC2", "note": "[compound 1883, N-(4-bromo-2-chlorophenyl)-N′-(cis-4-{[4-(dimethylamino)-5,6,7,8-tetrahydroquinazolin-2-yl]amino}cyclohexyl)urea]", "class": "2 (Class 2: The value of percent of control at 10^−7 M was from 40% to 60% or the value of IC′50 was from 50 nM to 200 nM.)"},
      {"smiles": "CN(C)c1nc(N[C@H]2CC[C@@H](NC(=O)Nc3ccc(Br)cc3F)CC2)nc2c1CCCC2", "note": "[compound 1884]", "class": "3 (Class 3 The value of percent of control at 10^−7 M was more than 60% or the value of IC50 was more than 200 nM.)"},
      {"smiles": "Cc1cc(NC(=O)N[C@H]2CC[C@@H](Nc3nc4c(c(N(C)C)n3)CCCC4)CC2)ccc1Br", "note": "[compound 1885]", "class": "3 (Class 3 The value of percent of control at 10^−7 M was more than 60% or the value of IC50 was more than 200 nM.)"},
      {"smiles": "CN(C)c1nc(N[C@H]2CC[C@@H](NC(=O)Nc3ccc(Cl)cc3[N+](=O)[O-])CC2)nc2c1CCCC2", "note": "[compound 1886]", "class": "3 (Class 3 The value of percent of control at 10^−7 M was more than 60% or the value of IC50 was more than 200 nM.)"},
      {"smiles": "CN(C)c1nc(N[C@H]2CC[C@@H](NC(=O)Nc3ccc(Cl)c(C(F)(F)F)c3)CC2)nc2c1CCCC2", "note": "[compound 1887, N-4[4-chloro-3-(trifluoromethyl)phenyl]-N′-(cis-4-{[4-(dimethylamino)-5,6,7,8-tetrahydroquinazolin-2-yl]amino}cyclohexyl)urea]", "class": "3 (Class 3 The value of percent of control at 10^−7 M was more than 60% or the value of IC50 was more than 200 nM.)"},
      {"smiles": "CCOc1ccc(NC(=O)N[C@H]2CC[C@@H](Nc3nc4c(c(N(C)C)n3)CCCC4)CC2)cc1", "note": "[compound 1888]", "class": "3 (Class 3 The value of percent of control at 10^−7 M was more than 60% or the value of IC50 was more than 200 nM.)"},
      {"smiles": "CN(C)c1nc(N[C@H]2CC[C@@H](NC(=O)Nc3ccc(F)cc3[N+](=O)[O-])CC2)nc2c1CCCC2", "note": "[compound 1889]", "class": "3 (Class 3 The value of percent of control at 10^−7 M was more than 60% or the value of IC50 was more than 200 nM.)"},
      {"smiles": "CN(C)c1nc(N[C@H]2CC[C@@H](NC(=O)Nc3ccc(F)c(C(F)(F)F)c3)CC2)nc2c1CCCC2", "note": "[compound 1890]", "class": "3 (Class 3 The value of percent of control at 10^−7 M was more than 60% or the value of IC50 was more than 200 nM.)"},
      {"smiles": "CCCCCCCOc1ccc(NC(=O)N[C@H]2CC[C@@H](Nc3nc4c(c(N(C)C)n3)CCCC4)CC2)cc1", "note": "[compound 1891]", "class": "3 (Class 3 The value of percent of control at 10^−7 M was more than 60% or the value of IC50 was more than 200 nM.)"},
      {"smiles": "CN(C)c1nc(N[C@H]2CC[C@@H](NC(=O)Nc3ccc(I)cc3)CC2)nc2c1CCCC2", "note": "[compound 1892]", "class": "3 (Class 3 The value of percent of control at 10^−7 M was more than 60% or the value of IC50 was more than 200 nM.)"},
      {"smiles": "COc1ccc(NC(=O)N[C@H]2CC[C@@H](Nc3nc4c(c(N(C)C)n3)CCCC4)CC2)c([N+](=O)[O-])c1", "note": "[compound 1893]", "class": "3 (Class 3 The value of percent of control at 10^−7 M was more than 60% or the value of IC50 was more than 200 nM.)"},
      {"smiles": "Cc1ccc(NC(=O)N[C@H]2CC[C@@H](Nc3nc4c(c(N(C)C)n3)CCCC4)CC2)cc1[N+](=O)[O-]", "note": "[compound 1894]", "class": "3 (Class 3 The value of percent of control at 10^−7 M was more than 60% or the value of IC50 was more than 200 nM.)"}
    ]}
  ]
}
